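Step 1: Grow cells in 96-well plates. Step 2: Expose to compound for 48 hours at 5 concentrations. Step 3: Interpolate endpoints linearly; if unreached, use highest concentration. At the GI50, growth is halved.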 Activity calls are given as the source filed them. Rule as the data show it: active = GI50 up to about 1.1 µM and inactive = higher.
What was measured:
Experiment in all cases: NCI anticancer screen, dose series, 48 h
CCRF-CEM = system: CCRF-CEM
SK-MEL-2 = system: SK-MEL-2
MDA-N = system: MDA-N
DU-145 = system: DU-145
786-0 = system: 786-0
UO-31 = system: UO-31
SK-MEL-5 = system: SK-MEL-5
A549 = system: A549
HCT-15 = system: HCT-15
A498 = system: A498
SK-OV-3 = system: SK-OV-3
SF-268 = system: SF-268
EKVX = system: EKVX
SF-295 = system: SF-295
TK-10 = system: TK-10
MOLT-4 = system: MOLT-4
KM12 = system: KM12
Hs-578T = system: Hs-578T
SN12C = system: SN12C
SW-620 = system: SW-620

Row | SMILES | GI50 (CCRF-CEM) | GI50 (SK-MEL-2) | GI50 (MDA-N) | GI50 (DU-145) | GI50 (786-0) | GI50 (UO-31) | GI50 (SK-MEL-5) | GI50 (A549) | GI50 (HCT-15) | GI50 (A498) | GI50 (SK-OV-3) | GI50 (SF-268) | GI50 (EKVX) | GI50 (SF-295) | GI50 (TK-10) | GI50 (MOLT-4) | GI50 (KM12) | GI50 (Hs-578T) | GI50 (SN12C) | GI50 (SW-620)
1 | O=[N+]([O-])C(=C(N1CCOCC1)N1CCOCC1)/C(Cl)=C(\Cl)[N+](=O)[O-] | 2.65 µM (inactive) | 15.8 µM (inactive) | 9.75 µM (inactive) | 7.45 µM (inactive) | 3.69 µM (inactive) | 6.71 µM (inactive) | 1.66 µM (inactive) | 23.1 µM (inactive) | 2.7 µM | 20.2 µM (inactive) | 52.7 µM (inactive) | 10.6 µM (inactive) | 8.73 µM (inactive) | 18 µM (inactive) | 1.99 µM (inactive) | 17.2 µM (inactive) | 16.3 µM (inactive) | 1.18 µM (inactive) | 2.01 µM (inactive) | 2.23 µM (inactive)
2 | CN(C)CC1CN(C(=O)Nc2ccccc2)C(=N)O1 (stereo not given) | > 100 µM (inactive) | > 100 µM (inactive) | 83.2 µM (inactive) | 38.2 µM (inactive) | > 100 µM (inactive) | > 100 µM (inactive) | > 100 µM (inactive) | > 100 µM (inactive) | > 100 µM | > 100 µM (inactive) | > 100 µM (inactive) | > 100 µM (inactive) | > 100 µM (inactive) | > 100 µM (inactive) | > 100 µM (inactive) | > 100 µM (inactive) | > 100 µM (inactive) | > 100 µM (inactive) | > 100 µM (inactive) | > 100 µM (inactive)
3 | CC(=O)O[C@H]1C[C@]2(O)[C@@H]3CC[C@@H]4C[C@@H](O)CC[C@]4(C)[C@H]3CC[C@]2(C)[C@H]1C1=CC(=O)OC1 | 0.0375 µM (active) | 0.218 µM (active) | 0.0867 µM (active) | 0.0316 µM (active) | 0.0455 µM (active) | 0.0632 µM (active) | 0.0318 µM (active) | < 0.0144 µM (active) | 0.0843 µM | 0.0977 µM (active) | 0.214 µM (active) | 0.0429 µM (active) | 0.0458 µM (active) | 0.0391 µM (active) | 0.0796 µM (active) | 0.0201 µM (active) | 0.398 µM (active) | 0.0675 µM (active) | 0.037 µM (active) | 0.125 µM (active)
4 | C[C@H](CCC(=O)NCCS(=O)(=O)O)[C@H]1CC[C@H]2[C@@H]3CC[C@@H]4C[C@H](O)CC[C@]4(C)[C@H]3CC[C@]12C | > 100 µM (inactive) | > 100 µM (inactive) | > 100 µM (inactive) | > 100 µM (inactive) | > 100 µM (inactive) | > 100 µM (inactive) | > 100 µM (inactive) | > 100 µM (inactive) | > 100 µM | > 100 µM (inactive) | > 100 µM (inactive) | > 100 µM (inactive) | > 100 µM (inactive) | > 100 µM (inactive) | > 100 µM (inactive) | 91 µM (inactive) | > 100 µM (inactive) | > 100 µM (inactive) | > 100 µM (inactive) | > 100 µM (inactive)
5 | Cn1c(=O)c2c(nc3n2CCC(=O)N3CCCCl)n(C)c1=O | > 100 µM (inactive) | > 100 µM (inactive) | > 100 µM (inactive) | > 100 µM (inactive) | > 100 µM (inactive) | > 100 µM (inactive) | > 100 µM (inactive) | > 100 µM (inactive) | > 100 µM | > 100 µM (inactive) | > 100 µM (inactive) | > 100 µM (inactive) | > 100 µM (inactive) | > 100 µM (inactive) | > 100 µM (inactive) | > 100 µM (inactive) | > 100 µM (inactive) | > 100 µM (inactive) | > 100 µM (inactive) | > 100 µM (inactive)
6 | N=C(N)N/N=C/c1c(-c2ccc([N+](=O)[O-])cc2)nc2sc(Cl)cn12 | 0.277 µM (active) | 0.513 µM (active) | 0.54 µM (active) | 1.11 µM (active) | 0.212 µM (active) | 0.979 µM (active) | 0.891 µM (active) | 0.593 µM (active) | 0.312 µM | 0.873 µM (active) | 1.8 µM (inactive) | 1.42 µM (inactive) | 0.611 µM (active) | 1.17 µM (inactive) | 2.05 µM (inactive) | 0.247 µM (active) | 0.809 µM (active) | 1.03 µM (active) | 1.31 µM (inactive) | 0.226 µM (active)
7 | O=C(NC(c1ccccc1)C(O)C(=O)OCc1ccc2c(c1)C(=O)c1ccccc1C2=O)c1ccccc1 (stereo not given) | 77.3 µM (inactive) | 18.1 µM (inactive) | 30.5 µM (inactive) | 54.7 µM (inactive) | 2.94 µM (inactive) | 2.86 µM (inactive) | 13.6 µM (inactive) | 9.91 µM (inactive) | > 95.3 µM | 5.71 µM (inactive) | 5.18 µM (inactive) | 17.1 µM (inactive) | 24.7 µM (inactive) | 10.6 µM (inactive) | 15.2 µM (inactive) | 74.6 µM (inactive) | 57.4 µM (inactive) | 34.8 µM (inactive) | 8.69 µM (inactive) | 63.5 µM (inactive)

— ChEMBL document CHEMBL1201862, “PubChem BioAssay data set” (2004)
